Paper PMC7217877, “N-AS-triggered SPMs are direct regulators of microglia in a model of Alzheimer’s disease” (Nature Communications, 2020)
Several values for one entry are separate records, joined by “and”; a condition that tells them apart may be missing. Identical values can stand only once.

How the values were obtained:
astrocyte = test: N-AS generation in primary cultured cells (LC-MS/MS); type: cell-based, C57BL/6 mice; parameters: dose or concentration left out as unconfirmed; conditions: Ab, replicates
Method: (§1) Reactions were quenched by adding equal volume of cold methanol. A 100 μl aliquot of the reaction mixture was mixed with 30 μl of distilled water containing 5 ng ml^−1 of furosemide (internal standard) for 1 min and vigorously mixed with […] of ethyl acetate for 20 min. After centrifugation at 16,000×g for 10 min, the mixtures were kept for 2 h for freezing aqueous phase. The upper ethyl acetate layer was transferred to a clean tube and evaporated to dryness under a gentle stream of nitrogen. Then, the dried extract was reconstituted in 100 µl of mobile phase and 10 µl aliquot of the solution was injected into an Agilent 6470 Triple Quad LC–MS/MS system (Agilent, Wilmington, DE) coupled with an Agilent 1260 HPLC system. […] Quantification was carried out using multiple reaction monitoring (MRM) at m/z 340.3→263.3 for N-AS and m/z 328.9→284.8 for furosemide (internal standard) in negative ionization mode and collision energy of 20 eV. […]
(§2) To confirm the generation and roles of N-AS in neurons, cells from E18 C57BL/6 mice were prepared as previously described. […] Aβ 1–42 (10 μM, 24 h, Invitrogen, 03112) was exposed to neurons and the cells were analyzed for the generation and roles of N-AS. […]

microglia = test: as above; type: cell-based, C57BL/6 mice; parameters: dose or concentration left out as unconfirmed; conditions: Ab, replicates
Method: as §1, §2

Which results are given for “Ab: Aβ 1–42 (Invitrogen, 03112) used to induce an AD environment in cells”?
N-AS quantification (Fig 3a) (astrocyte): 0.05349 and 0.0246 and 0.05789 and 0.03905 and 0.04125 and 0.04847; N-AS quantification (Fig 3a) (microglia): 1.15 and 1.365 and 1.237 and 1.2575 and 1.301 and 1.247
